Article PMC12637173, “Investigation on LASSBio‐1971 and LASSBio‐1974 Cellular Cytotoxic Mechanism and Their Comparative DMPK Profile” (Archiv Der Pharmazie, 2025)
Like-named read-outs stand apart in the source and are kept apart here.

Key:
NCI‐H292 (EGFRwt) [1] = test: Cell viability by MTT assay, NCI-H292; conditions: for IC50: read-out: cytotoxic activity, NCI-H292 (EGFRw.t.)
Experimental: (§3) All cell lines were harvested at 37°C and 5% CO2 atmosphere humid incubator.
(§4) Cells were plated at 1 × 10^4 to 3 × 10^4 cells/well and seeded in a 96‐well plate. After 16–24 h of cell acclimatization, compounds were added at 0.003–100 µM concentrations (1% DMSO vehicle). After 72 h, treatment was interrupted to measure cell viability using MTT (3‐(4,5‐dimethylthiazol‐2‐yl)‐2,5‐diphenyltetrazolium bromide) (50 µg/mL) [62]. Formazan formed by viable cells was solubilized after 4 h incubation with SDS/HCl solution (0.1 g/mL) and read at 570 nm in spectrophotometer.

NCI‐H292 (EGFRwt) [2] = test: Cell viability by sulforhodamine B (SRB) assay, NCI-H292; conditions: Homo sapiens, NCI-H292, 72 h, read-out: cytotoxic activity CC50, NCI‐H292 (EGFRwt)
Experimental: as §3
(§5) Cells were plated at 1 × 10^4 to 3 × 10^4 cells/well and seeded in a 96‐well plate. After 16–24 h of cell acclimatization, compounds were added at 0.003–100 µM concentrations (1% DMSO as vehicle). The experimental procedure was handled as described by Vichai and Kirtikara [63]. After incubation, cells were fixed with trichloroacetic acid (TCA) (10% m/v) for 1 h at 4°C. SRB (0.004% w/v in acetic acid 1%) was added for 30 min and washed with acetic acid 1%.

PAMPA‐BBB = assay type: in vitro ADME; conditions: PAMPA‐BBB
Experimental: (§1) The lipid mixture that impregnates the filter has a different constitution for the permeability tests for the BBB (brain lipid from pig extract in n‐dodecane) and the GIT (L‐α soy phosphatidylcholine in n‐dodecane). The optical density values obtained in the reading at each selected wavelength, for each of the compounds, were analyzed in comparison with the values of several controls within a calibration curve (≥ 7 drugs). In the case of the BBB, these values were used to elaborate an equation and determine the permeability coefficient (Pe), while GIT used absorbed fraction (Fa%).

[3] = Conjugation with glutathione in rat liver microsomes; assay type: in vitro ADME; conditions: RLM 1 mg/mL, 10 μM, 2 mM GSH, 60 min, LC/MS/MS
Experimental: Incubation with pooled RLMs (1 mg/mL protein) was conducted in 50 mM potassium phosphate buffer (pH 7.4) at 37°C in an incubator for 60 min. LASSBio‐1971 (1) and P‐chlorophenyl isocyanate (10 μM) and 2 mM GSH were added to the buffer. The incubation was initiated by NADPH‐generating system consisting of 40 mM NADP^+, 350 mM glucose‐6‐phosphate, 5 units/mL glucose‐6‐phosphate dehydrogenase, and 130 mM MgCl2. The incubation was terminated at 60 min by the addition of 1 mL of ACN (with 6% of formic acid, with a total volume of 1.25 mL). The quenched sample was then centrifuged at 10,500 × g for 15 min, and 1 mL of the supernatant was collected to be injected into the Q‐Exactive Plus ESI MS System (Thermo Scientific, USA).

PC‐9 (EGFRL858R) [4] = test: Cell viability by MTT assay, PC-9; conditions: Homo sapiens; for IC50: read-out: cytotoxic activity, PC-9 (EGFRL858R)
Experimental: as §3, §4

PC‐9 (EGFRL858R) [5] = test: Apoptosis by flow cytometry (Muse Annexin V & Dead Cell Kit); assay type: cell-based, human; conditions: PC‐9, 72 h
Experimental: (§2) PC‐9 (EGFRL858R) cell line was seeded at 1 × 10^5 cells/well in a 24‐well plate. […] All flow cytometry assays were performed using Guava Muse Cell Analyzer (Cytek Biosciences) following each kit user's guide provided by the manufacturer. Muse Cell Cycle Kit (catalog no. MCH100106) was chosen to evaluate cell cycle arresting. Apoptosis features were evaluated using Muse Annexin V & Dead Cell Kit (catalog no. MCH100105), as well as inactivation of EGFR using Muse EGFR‐RTK Activation Dual Detection Kit (catalog no. MCH200102). Statistical analysis was performed using one‐way ANOVA on data collected in duplicate from at least two independent experiments (n ≥ 2), employing GraphPad Prism software (version 8.0).

PC‐9 (EGFRL858R) [6] = test: Cell cycle by flow cytometry (Muse Cell Cycle Kit); assay type: cell-based, human; conditions: PC‐9, 24 h, 1 µM
Experimental: as §2

EGFR in PC‐9 (EGFRL858R) = test: EGFR activation by flow cytometry (Muse EGFR‐RTK Activation Dual Detection Kit); assay type: cell-based, human; conditions: PC‐9, at respective CC50, compared to vehicle (DMSO 1%)
Experimental: as §2

[7] = system: NCI‐H1975 (EGFRL858R/T790M); test: Cell viability by MTT assay, NCI-H1975; conditions: Homo sapiens; for IC50: read-out: cytotoxic activity, NCI-H1975 (EGFRL858R/T790M)
Experimental: as §3, §4

EGFRL858R = system: EGFRL858R; parameters: method as in PMID 30626888; conditions: in vitro enzymatic model; cited from earlier work
EGFRL858R/T790M = system: EGFRL858R/T790M; parameters: method as in PMID 30626888; conditions: in vitro enzymatic model; cited from earlier work
PAMPA‐GIT = assay type: in vitro ADME; conditions: PAMPA‐GIT
Experimental: as §1

PC‐9 (EGFRL858R) [8] = test: Cell viability by sulforhodamine B (SRB) assay, PC-9; conditions: Homo sapiens, 72 h, read-out: cytotoxic activity CC50, PC‐9 (EGFRL858R)
Experimental: as §3, §5

[9] = system: NCI‐H1975 (EGFRL858R/T790M); test: Cell viability by sulforhodamine B (SRB) assay, NCI-H1975; assay type: cell-based; conditions: Homo sapiens, 72 h, read-out: cytotoxic activity CC50, NCI‐H1975 (EGFRL858R/T790M)
Experimental: as §3, §5

[10] = Microsomal metabolic stability; assay type: in vitro ADME, rat; conditions: for Metabolism rate: RLM 1 mg/mL, 10 μM, 60 min; for half-life at 10 µM / microsomal CLint at 10 µM: rat, rat liver microsomes
Experimental: The metabolic stability of compounds LASSBio‐1971 (1) and LASSBio‐1974 (2) (10 μM) was incubated in 1 mg/mL of rat microsomes in the presence and absence of the cofactor (i.e., NADPH‐generating system) at the same concentrations as in the previous section. After mixing and incubating at 37°C in a shaking water bath for 1 h, 500 µL cold acetonitrile containing the internal standard was added to terminate the reaction at different time intervals (0, 15, 30, 45, and 60 min).

EGFRwt = system: EGFRwt; parameters: method as in PMID 30626888; conditions: in vitro enzymatic model; cited from earlier work
[11] = RLM, NADPH regenerator system: Absence
[12] = RLM, NADPH regenerator system: Presence

C=CC(=O)Nc1ccc2ncc(NC(=O)Nc3ccccc3)nc2c1 [LASSBio‐1971 (1)]
IC50 (NCI‐H292 (EGFRwt) [1]; Homo sapiens, NCI-H292, 24 h): 18.4 µM | IC50 (NCI‐H292 (EGFRwt) [1]; Homo sapiens, NCI-H292, 48 h): 8.85 µM | CC50 (NCI‐H292 (EGFRwt) [1]; Homo sapiens, NCI-H292, 72 h, read-out: cytotoxic activity CC50, NCI‐H292 (EGFRwt), MTT, 72 h): 1.5 µM | CC50 (NCI‐H292 (EGFRwt) [1]; read-out: cytotoxic activity CC50, NCI‐H292 (EGFRwt), MTT, 72 h): 1.51 µM | CC50 (NCI‐H292 (EGFRwt) [2]): 4.95 µM | Classification BBB (PAMPA‐BBB): CNS + | Pe. Exp. BBB (PAMPA‐BBB; mean ± standard deviation (n = 3)): 4.16 10^−6 cm/s | Papp (PAMPA‐BBB; mean ± standard deviation (n = 3), read-out: Pe. Exp. BBB): 4.16 ± 1.84 ×10⁻⁶ cm/s | covalent adduct formation with glutathione [3]: a covalent adduct between glutathione and LASSBio‐1971 (1) was formed | IC50 (PC‐9 (EGFRL858R) [4]; 24 h): 6.42 µM | IC50 (PC‐9 (EGFRL858R) [4]; 48 h): 0.14 µM | CC50 (PC‐9 (EGFRL858R) [4]; 72 h, read-out: cytotoxic activity CC50, PC‐9 (EGFRL858R)): 0.13 µM | apoptosis phenotype induction (PC‐9 (EGFRL858R) [5]): could not induce an apoptosis phenotype | cell cycle arrest phase (PC‐9 (EGFRL858R) [6]): G0/G1 phase arrest | inhibition of phosphorylation and activation of EGFR (EGFR in PC‐9 (EGFRL858R)): inhibit phosphorylation | IC50 ([7]; NCI-H1975, 24 h): 51.3 µM | IC50 ([7]; NCI-H1975, 48 h): 6.45 µM | CC50 ([7]; NCI-H1975, 72 h, read-out: cytotoxic activity CC50, NCI‐H1975 (EGFRL858R/T790M)): 5.1 µM | IC50 (EGFRL858R): 0.018 ± 0.003 µM | IC50 (EGFRL858R/T790M): 1.68 ± 1.51 µM | Classification GIT (PAMPA‐GIT): High (high intestinal permeability (70%–100%)) | Fa (absorbed fraction) (PAMPA‐GIT): 94.62% | Papp (PAMPA‐GIT; mean ± standard deviation (n = 3), read-out: Pe. Exp. GIT): 7.69 ± 0.7 ×10⁻⁶ cm/s | CC50 (PC‐9 (EGFRL858R) [8]): 1.02 µM | CC50 [9]: 18.5 µM | Metabolism rate ([10]; NADPH regenerator system: Absence): 21.99% | Metabolism rate ([10]; NADPH regenerator system: Presence): 53.93% | Elimination rate constant (k) [10, 11]: 0.0039 | Elimination rate constant (k) [10, 12]: 0.0129 | t 1/2 [10, 12]: 53.72 min | half-life at 10 µM [10, 11]: 178 min | microsomal CLint at 10 µM [10, 11]: 0.975 µL/min/mg | half-life at 10 µM [10, 12]: 53.7 min | microsomal CLint at 10 µM [10, 12]: 3.23 µL/min/mg | IC50 (EGFRwt): 0.025 ± 0.004 µM
